# Data taken from patent publication US20240140933A1, “OXOINDOLINE COMPOUND FOR THE TREATMENT OF INFLAMMATORY DISEASES OR CANCER” (Hoffmann-La Roche Inc., priority 2021, published 2024).
# Molecular target: PDHK1 (Homo sapiens (Human), UniProt Q15118)
# Experiment: PDHK1 enzymatic assay (AlphaScreen, phosphorylation of PDHE1 S293)
# Type: biochemical
# Settings: 1 nM PDHK1, 25 nM PDHE1, 20 μM ATP, 30° C. for 45 minutes
# Description: Pyruvate dehydrogenase complex (PDHc) is an enzyme that catalyzes the reaction of pyruvate and a lipoamide to give the acetylated dihydrolipoamide and carbon dioxide. PDHc has three subunits E1, E2 and E3. E1 has 3 serine phosphorylation sites S293, S232, S300. If E1 was phosphorylated, PDH will be inactivated. PDHK can phosphorylate PDH protein (also named PDHE1) in PDH complex (PDC) to inactivate it.
# Chain of PDHK1 (Q15118 29-436): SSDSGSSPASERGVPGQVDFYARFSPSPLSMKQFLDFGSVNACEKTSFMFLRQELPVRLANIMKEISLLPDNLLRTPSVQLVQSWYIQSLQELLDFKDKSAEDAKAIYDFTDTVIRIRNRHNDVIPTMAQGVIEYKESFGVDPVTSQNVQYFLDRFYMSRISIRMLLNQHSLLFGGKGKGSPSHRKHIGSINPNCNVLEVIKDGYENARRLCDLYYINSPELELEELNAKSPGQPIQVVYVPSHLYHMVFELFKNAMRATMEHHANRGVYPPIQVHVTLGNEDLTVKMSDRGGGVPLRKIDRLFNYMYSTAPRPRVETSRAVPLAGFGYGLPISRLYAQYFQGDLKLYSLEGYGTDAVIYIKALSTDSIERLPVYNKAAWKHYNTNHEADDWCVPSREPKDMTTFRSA
row,SMILES,Enzymatic IC50 against PDHK1
1,"CCNc1cc(F)cc2c1NC(=O)C2(C)N1CC[C@H](O)[C@@H](Nc2ccc(C#N)nc2)C1 (stereo partly drawn) [Example 50, 5-[[(3S,4S)-1-[7-(ethylamino)-5-fluoro-3-methyl-2-oxo-indolin-3-yl]-4-hydroxy-3-piperidyl]amino]pyridine-2-carbonitrile]",0.014 µg/mL
2,"CCNc1cc(F)cc2c1NC(=O)[C@]2(C)N1CC[C@H](c2ccccc2)[C@H](C(N)=O)C1 [Example 63A, (3S,4S)-1-[(3R)-7-(ethylamino)-5-fluoro-3-methyl-2-oxo-indolin-3-yl]-4-phenyl-piperidine-3-carboxamide]",0.009 µg/mL
3,"CCNc1cc(F)cc2c1NC(=O)C2(C)N1CCC[C@@H](Nc2cnc(C#N)c(Cl)c2)C1 (stereo partly drawn) [Example 22, 3-chloro-5-[[(3R)-1-[7-(ethylamino)-5-fluoro-3-methyl-2-oxo-indolin-3-yl]-3-piperidyl]amino]pyridine-2-carbonitrile]",0.024 µg/mL
4,"CCNc1cc(F)cc2c1NC(=O)C2(C)N1CCC[C@@H](Nc2ccc(OS(=O)(=O)F)cc2)C1 (stereo partly drawn) [Example 32, 7-(ethylamino)-5-fluoro-3-methyl-2-oxo-3-[(3R)-3-(4-fluorosulfonyloxyanilino)-1-piperidyl]indoline]",0.135 µg/mL
5,"CCNc1cc(F)cc2c1NC(=O)C2(C)N1CCC[C@@H](Nc2ccc(S(=O)(=O)F)c(OC)c2)C1 (stereo partly drawn) [Example 28, 4-[[(3R)-1-[7-(ethylamino)-5-fluoro-3-methyl-2-oxo-indolin-3-yl]-3-piperidyl]amino]-2-methoxy-benzenesulfonyl fluoride]",0.032 µg/mL
6,"CCNc1cc(F)cc2c1NC(=O)C2(C)N1C[C@H](F)C[C@@H](Nc2ccc(C#N)nc2)C1 (stereo partly drawn) [Example 45, 5-[[(3R,5R)-1-[7-(ethylamino)-5-fluoro-3-methyl-2-oxo-indolin-3-yl]-5-fluoro-3-piperidyl]amino]pyridine-2-carbonitrile]",0.011 µg/mL
7,"CCNc1cc(F)cc2c1NC(=O)C2(C)N1CCC[C@@](C)(Nc2ccc(C#N)nc2)C1 (stereo partly drawn) [Example 23, 5-[[(3R)-1-[7-(ethylamino)-5-fluoro-3-methyl-2-oxo-indolin-3-yl]-3-methyl-3-piperidyl]amino]pyridine-2-carbonitrile]",0.049 µg/mL
8,"CCNc1cc(F)cc2c1NC(=O)C2(C)N1CCC[C@@H](Nc2ccc(C#N)cn2)C1 (stereo partly drawn) [Example 14, 6-[[(3R)-1-[7-(ethylamino)-5-fluoro-3-methyl-2-oxo-indolin-3-yl]-3-piperidyl]amino]pyridine-3-carbonitrile]",0.007 µg/mL
9,"CCNc1cc(F)cc2c1NC(=O)C2(C)N1CC[C@H](c2ccccc2Oc2ccc(C(N)=O)cc2)[C@@H](NC(C)=O)C1 (stereo partly drawn) [Example 57, 4-[2-[(3R,4R)-3-acetamido-1-[7-(ethylamino)-5-fluoro-3-methyl-2-oxo-indolin-3-yl]-4-piperidyl]phenoxy]benzamide]",0.019 µg/mL
10,"CCNc1cc(F)cc2c1NC(=O)C2(C)N1CCC[C@@H](Nc2ccc(C(=O)O)nc2)C1 (stereo partly drawn) [Example 11, 5-[[(3R)-1-[7-(ethylamino)-5-fluoro-3-methyl-2-oxo-indolin-3-yl]-3-piperidyl]amino]pyridine-2-carboxylic acid]",0.020 µg/mL
11,"CCNc1cc(F)cc2c1NC(=O)C2(C)N1CCC[C@@H](Nc2ccc(S(C)(=O)=O)nc2)C1 (stereo partly drawn) [Example 20, 7-(ethylamino)-5-fluoro-3-methyl-3-[(3R)-3-[(6-methylsulfonyl-3-pyridyl)amino]-1-piperidyl]indolin-2-one]",0.038 µg/mL
12,"CCNc1cc(F)cc2c1NC(=O)C2(C)N1CC[C@H](c2ccccc2)[C@@H](NC(C)=O)C1 (stereo partly drawn) [Example 52, N-[(3R,4R)-1-[7-(ethylamino)-5-fluoro-3-methyl-2-oxo-indolin-3-yl]-4-phenyl-3-piperidyl]acetamide]",0.020 µg/mL
13,"CCNc1cc(F)cc2c1NC(=O)C2(C)N1CCC[C@@H](NC(=O)c2cccc(S(=O)(=O)F)c2)C1 (stereo partly drawn) [Example 42, 3-[[(3R)-1-[7-(ethylamino)-5-fluoro-3-methyl-2-oxo-indolin-3-yl]-3-piperidyl]carbamoyl]benzenesulfonyl fluoride]",0.020 µg/mL
14,"CCNc1cc(F)cc2c1NC(=O)C2(C)N1CCC[C@@H](NC(=O)c2cccc(OS(=O)(=O)F)c2)C1 (stereo partly drawn) [Example 44, 7-(ethylamino)-5-fluoro-3-[(3R)-3-[(3-fluorosulfonyloxybenzoyl)amino]-1-piperidyl]-3-methyl-2-oxo-indoline]",0.022 µg/mL
15,"CCNc1cc(F)cc2c1NC(=O)C2(C)N1CCC[C@@H](Cc2ccc(C(=O)O)cc2)C1 (stereo partly drawn) [Example 5, 4-[[(3S)-1-[7-(ethylamino)-5-fluoro-3-methyl-2-oxo-indolin-3-yl]-3-piperidyl]methyl]benzoic acid]",0.046 µg/mL
16,"CCNc1cc(F)cc2c1NC(=O)C2(C)N1CCC[C@@H](NC(=O)C2CCN(C#N)CC2)C1 (stereo partly drawn) [Example 38, 1-cyano-N-[(3R)-1-[7-(ethylamino)-5-fluoro-3-methyl-2-oxo-indolin-3-yl]-3-piperidyl]piperidine-4-carboxamide]",0.026 µg/mL
17,"CCNc1cc(F)cc2c1NC(=O)C2(C)N1CCC[C@@H](Nc2ccc(C#N)c(O)c2)C1 (stereo partly drawn) [Example 9, 4-[[(3R)-1-[7-(ethylamino)-5-fluoro-3-methyl-2-oxo-indolin-3-yl]-3-piperidyl]amino]-2-hydroxy-benzonitrile]",0.015 µg/mL
18,"CCNc1cc(F)cc2c1NC(=O)C2(C)N1CCC[C@@H](Nc2ccc(C(N)=O)nc2)C1 (stereo partly drawn) [Example 12, 5-[[(3R)-1-[7-(ethylamino)-5-fluoro-3-methyl-2-oxo-indolin-3-yl]-3-piperidyl]amino]pyridine-2-carboxamide]",0.062 µg/mL
19,"CCNc1cc(F)cc2c1NC(=O)C2(C)N1CC[C@@H](O)[C@@H](Nc2ccc(C#N)nc2)C1 (stereo partly drawn) [Example 51, 5-[[(3S,4R)-1-[7-(ethylamino)-5-fluoro-3-methyl-2-oxo-indolin-3-yl]-4-hydroxy-3-piperidyl]amino]pyridine-2-carbonitrile]",0.017 µg/mL
20,"CCNc1cc(F)cc2c1NC(=O)C2(C)N1CCC[C@@H](Nc2ccc(S(=O)(=O)F)cn2)C1 (stereo partly drawn) [Example 29, 6-[[(3R)-1-[7-(ethylamino)-5-fluoro-3-methyl-2-oxo-indolin-3-yl]-3-piperidyl]amino]pyridine-3-sulfonyl fluoride]",0.035 µg/mL
21,"CCNc1cc(F)cc2c1NC(=O)C2(C)N1C[C@@H](F)C[C@@H](Nc2ccc(C#N)nc2)C1 (stereo partly drawn) [Example 46, 5-[[(3R,5S)-1-[7-(ethylamino)-5-fluoro-3-methyl-2-oxo-indolin-3-yl]-5-fluoro-3-piperidyl]amino]pyridine-2-carbonitrile]",0.012 µg/mL
22,"C=CS(=O)(=O)N[C@H]1CN(C2(C)C(=O)Nc3c(NCC)cc(F)cc32)CC[C@@H]1c1ccccc1 (stereo partly drawn) [Example 53, N-[(3R,4R)-1-[7-(ethylamino)-5-fluoro-3-methyl-2-oxo-indolin-3-yl]-4-phenyl-3-piperidyl]ethenesulfonamide]",0.015 µg/mL
23,"C=CC(=O)N1CC2(CC(C(=O)N[C@@H]3CCCN(C4(C)C(=O)Nc5c(NCC)cc(F)cc54)C3)C2)C1 (stereo partly drawn) [Example 41, N-[(3R)-1-[7-(ethylamino)-5-fluoro-3-methyl-2-oxo-indolin-3-yl]-3-piperidyl]-2-prop-2-enoyl-2-azaspiro[3.3]heptane-6-carboxamide]",0.032 µg/mL
24,"CCNc1cc(F)cc2c1NC(=O)C2(C)N1CCC[C@@H](Nc2ccc(C#N)cc2)C1 (stereo partly drawn) [Example 8, 4-[[(3R)-1-[7-(ethylamino)-5-fluoro-3-methyl-2-oxo-indolin-3-yl]-3-piperidyl]amino]benzonitrile]",0.022 µg/mL
25,"CCNc1cc(F)cc2c1NC(=O)C2(C)N1CCC[C@@H](Cc2ccc(C(N)=O)cc2)C1 (stereo partly drawn) [Example 6, 4-[[(3S)-1-[7-(ethylamino)-5-fluoro-3-methyl-2-oxo-indolin-3-yl]-3-piperidyl]methyl]benzamide]",0.143 µg/mL
26,"CCNc1cc(F)cc2c1NC(=O)C2(C)N1CCC[C@@H](Nc2cccc(S(=O)(=O)F)c2)C1 (stereo partly drawn) [Example 27, 3-[[(3R)-1-[7-(ethylamino)-5-fluoro-3-methyl-2-oxo-indolin-3-yl]-3-piperidyl]amino]benzenesulfonyl fluoride]",0.086 µg/mL
27,"CCNc1cc(F)cc2c1NC(=O)C2(CC)N1CC[C@H](F)[C@@H](Nc2ccc(C#N)nc2)C1 (stereo partly drawn) [Example 49, 5-[[(3S,4S)-1-[3-ethyl-7-(ethylamino)-5-fluoro-2-oxo-indolin-3-yl]-4-fluoro-3-piperidyl]amino]pyridine-2-carbonitrile]",0.007 µg/mL

# Same assay, conditions: 1 nM PDHK1, 25 nM PDHE1, 20 μM ATP, 30° C. for 45 minutes; read-out: Enzymatic IC50 against PDHK1 (converted)
row,SMILES,IC50
1,"CCNc1cc(F)cc2c1NC(=O)[C@@]2(C)N1CC[C@@H](c2ccccc2)[C@@H](C(=O)Nc2ccccc2)C1 [Example 61B, (3R,4R)-1-[(3S)-7-(ethylamino)-5-fluoro-3-methyl-2-oxo-indolin-3-yl]-N,4-diphenyl-piperidine-3-carboxamide]",47.3 nM
2,"CCNc1cc(F)cc2c1NC(=O)[C@@]2(C)N1CC[C@@H](c2ccccc2)[C@@H](C(=O)NCc2ccccc2)C1 [Example 62B, (3R,4R)-N-benzyl-1-[(3S)-7-(ethylamino)-5-fluoro-3-methyl-2-oxo-indolin-3-yl]-4-phenyl-piperidine-3-carboxamide]",75.9 nM
